This is an account of results in patent US9518015B2, “EP1 receptor ligands” (LABORATORIOS DEL DR. ESTEVE, S.A., priority 2011, dated 2016).

Where only a bound is given, the exact number is not on record here.

For assay [1], the target named is T1, human EP1 receptor (Homo sapiens, UniProt P34995).
T1 sequence (P34995 1-402): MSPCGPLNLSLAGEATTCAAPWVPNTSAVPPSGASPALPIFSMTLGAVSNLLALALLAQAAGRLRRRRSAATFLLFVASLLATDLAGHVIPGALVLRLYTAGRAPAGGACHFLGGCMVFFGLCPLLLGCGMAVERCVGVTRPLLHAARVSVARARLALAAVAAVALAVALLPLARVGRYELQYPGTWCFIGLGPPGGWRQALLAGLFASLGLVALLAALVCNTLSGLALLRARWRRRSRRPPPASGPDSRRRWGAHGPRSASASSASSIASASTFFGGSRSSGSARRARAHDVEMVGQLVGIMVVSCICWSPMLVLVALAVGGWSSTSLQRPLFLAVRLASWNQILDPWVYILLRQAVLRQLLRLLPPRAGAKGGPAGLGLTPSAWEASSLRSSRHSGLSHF
The assay is described as follows: Test 2: Measurement of IP1 responses by HTRF, suspended HEK-293 cells stably expressing human EP1 receptors, PGE2 30 nM. The following applies: for inhibition at 10 µM: HEK293, at 10 μM, read-out: Results of Test 2 (Functional assay), % inh. It counts as cell-based. The arrangement: expressed in transfected cells. The protocol: Test 2: Measurement of IP1 responses by Homogeneous Time Resolved Fluorescence
IP1 measurements on HEK-293 cells that stably expressed human EP1 receptors were performed by using a system based on Homogeneous Time Resolved Fluorescense (HTRF) (Gabriel et al., 2003). This technology allows the direct measurement of IP1 in living cells. The principle of this assay is based on competition between IP1 produced by cells and IP1-d2 conjugate for the binding with monoclonal anti-IP1-cryptate conjugate. The HTRF IP1 kit from CisBio was used according to the manufacturer's directions. The experimental procedure was performed as stated below.
Suspended cells (30,000 cells per well) were added to 96-well culture plates in 40 μl of stimulation buffer (supplied by the kit). Compounds were then added in 20 μl of stimulation buffer and incubated at 37° C. for 15 minutes followed by 10 μl of PGE2 to a final concentration of […]. After 90 minutes at 37° C., the reaction was stopped lysing the cells with a mixture of 15 μl of cryptate and 15 μl of IP1-d2 prepared in the lysis buffer supplied by the manufacturer. Plates were incubated for an additional hour at room temperature and read at 665 nm/620 nm using an UltraEvolution Plate reader (Tecan).
Antagonist percentage inhibition was calculated relating compounds activity to the 0% inhibition of the wells incubated with 10 nM PGE2 alone and 100% inhibition of the wells incubated with 10 nM PGE2 plus 1 μM of the reference antagonist.

Assay [2] deals with T1, human EP1 receptor. Nature of the assay: Test 1: Human EP1 receptor radioligand binding assay ([3H]-PGE2, transfected HEK-293 cell membranes). Set-up: expressed in transfected cells; host or cells: HEK-293 cell membranes. To be noted: read-out: Results of Test 1 (Binding assay), % inh. Here is the method:
Test 1: Human EP1 Receptor Radioligand Binding Assay
To investigate binding properties of EP1 receptor ligands to human EP1 receptor, transfected HEK-293 cell membranes and [3H]-PGE2 (Perkin Elmer) were used. In 96-well plates the assay was carried out with a total reaction volume of 250 μl, containing 25 μl of membrane suspension (30 μg protein/well), 25 μl of [3H]-PGE2 (10 nM) in either absence or presence of 25 μl of either buffer or PGE2 (10 μM) for total and non-specific binding, respectively. Binding buffer contained 10 mM MES, 1 mM MgCl2 and 1 mM EDTA at pH 6.0. Plates were incubated at 25° C. for 60 minutes. After the incubation period, 200 μl of incubate were transferred to MultiScreen HTS, FB plates (Millipore), filtered and plates were washed 6 times with ice-cold 10 mM MES, 1 mM MgCl2 and 1 mM EDTA at pH 6.0. Filters were dried and counted in a MicroBeta scintillation counter (Perkin-Elmer) using EcoScint liquid scintillation cocktail.
Percentage inhibition was calculated relating compounds activity to the 0% inhibition of the wells incubated with 10 nM [3H]-PGE2 alone (total binding) and 100% inhibition of the wells incubated with 10 nM [3H]-PGE2 plus 10 μM PGE2 (non-specific binding).

Turning to `O=C(O)c1cccc2c1ccn2Cc1cc(Cl)ccc1OCc1ccc(C(F)(F)F)cc1` [Example 11, 1-(5-chloro-2-((4-(trifluoromethyl)benzyl)oxy)benzyl)-1H-indole-4-carboxylic acid], the inhibition at 10 µM on human EP1 receptor [1] and at human EP1 receptor [2] was above 75% in each case. Consider `O=C(O)c1cccc2c1ccn2Cc1cc(Cl)ccc1OCc1ccc(F)cc1Cl` [Example 12, 1-(5-chloro-2-((2-chloro-4-fluorobenzyl)oxy)benzyl)-1H-indole-4-carboxylic acid], for which the inhibition at 10 µM at human EP1 receptor [1] and at human EP1 receptor [2] was above 75% in each case. Turning to `O=C(O)c1cccc2c1ccn2Cc1cc(Cl)ccc1OCc1c(F)c(F)cc(F)c1F` [Example 13, 1-(5-chloro-2-((2,3,5,6-tetrafluorobenzyl)oxy)benzyl)-1H-indole-4-carboxylic acid], the inhibition at 10 µM on human EP1 receptor [1] was above 75%; on human EP1 receptor [2] it was 45 to 75%. On the same counts, the results for `O=C(O)c1cccc2c1ccn2Cc1cc(Cl)ccc1OCc1ccc(C(F)(F)F)cc1C(F)(F)F` [Example 14] are above 75% and above 75%. On the same counts, the results for `O=C(O)c1cccc2c1ccn2Cc1cc(Cl)ccc1OCc1ccc(F)c(Br)c1` [Example 17, 1-(2-((3-bromo-4-fluorobenzyl)oxy)-5-chlorobenzyl)-1H-indole-4-carboxylic acid] are above 75% and 45 to 75%. In the same order, the values of `O=C(O)c1cccc2c1ccn2Cc1cc(F)ccc1OCc1ccc(F)cc1Cl` [Example 19, 1-(2-((2-chloro-4-fluorobenzyl)oxy)-5-fluorobenzyl)-1H-indole-4-carboxylic acid] are above 75% and 45 to 75%. Turning to `O=C(O)c1cccc2c1ccn2Cc1cc(Cl)ccc1OCc1ccc(F)c(F)c1F` [Example 21, 1-(5-chloro-2-((2,3,4-trifluorobenzyl)oxy)benzyl)-1H-indole-4-carboxylic acid], the figures for the inhibition at 10 µM at human EP1 receptor [1] and at human EP1 receptor [2] were above 75% and 45 to 75%, respectively.

For the compound `O=C(O)c1cccc2c1ccn2Cc1cc(F)ccc1OCc1ccc(F)c(Br)c1` [Example 24, 1-(2-((3-bromo-4-fluorobenzyl)oxy)-5-fluorobenzyl)-1H-indole-4-carboxylic acid], the inhibition at 10 µM is above 75% on human EP1 receptor [1] and 45 to 75% on human EP1 receptor [2].

Turning to `O=C(O)c1cccc2c1ccn2Cc1cc(Br)ccc1OCc1ccc(F)c(Br)c1` [Example 25, 1-(5-bromo-2-((3-bromo-4-fluorobenzyl)oxy)benzyl)-1H-indole-4-carboxylic acid], the inhibition at 10 µM at human EP1 receptor [1] is above 75%; at human EP1 receptor [2] it was 45 to 75%. On the same counts, the results for `O=C(O)c1cccc2c1ccn2Cc1cc(Cl)ccc1OCc1cc(F)ccc1F` [Example 29, 1-(5-chloro-2-((2,5-difluorobenzyl)oxy)benzyl)-1H-indole-4-carboxylic acid] are above 75% and above 75%. In the same order, the values of `O=C(O)c1cccc2c1ccn2Cc1cc(F)ccc1OCc1c(F)cccc1F` [Example 33, 1-(2-((2,6-difluorobenzyl)oxy)-5-fluorobenzyl)-1H-indole-4-carboxylic acid] are above 75% and 45 to 75%.

As for `O=C(O)c1cccc2c1ccn2Cc1cc(F)ccc1OCc1cc(F)c(F)c(F)c1` [Example 34, 1-(5-fluoro-2-((3,4,5-trifluorobenzyl)oxy)benzyl)-1H-indole-4-carboxylic acid], the inhibition at 10 µM on human EP1 receptor [1] was above 75%; at human EP1 receptor [2], 45 to 75%. On the same counts, the results for `O=C(O)c1cccc2c1ccn2Cc1cc(Cl)ccc1OCc1ccccc1F` [Example 45, 1-(5-chloro-2-((2-fluorobenzyl)oxy)benzyl)-1H-indole-4-carboxylic acid] are above 75% and above 75%. `O=C(O)/C=C/c1cccc2c1ccn2Cc1cc(Br)ccc1OCC1CC1` [Example 80, (E)-3-(1-(5-bromo-2-(cyclopropylmethoxy)benzyl)-1H-indol-4-yl)acrylic acid]: the inhibition at 10 µM on human EP1 receptor [1] was above 75%. In the case of `O=C(O)/C=C/c1cccc2c1ccn2Cc1cc(Cl)ccc1OCC1CC1` [Example 81, (E)-3-(1-(5-chloro-2-(cyclopropylmethoxy)benzyl)-1H-indol-4-yl)acrylic acid], the inhibition at 10 µM on human EP1 receptor [1] is above 75%. The same measure, in the same setting: the same measure for `O=C(O)/C=C/c1cccc2c1ccn2Cc1cc(Cl)ccc1OCc1ccc(F)cc1F` [Example 82, (E)-3-(1-(5-chloro-2-((2,4-difluorobenzyl)oxy)benzyl)-1H-indol-4-yl)acrylic acid]: above 75%; for `O=C(O)/C=C/c1cccc2c1ccn2Cc1cc(Cl)ccc1OCc1ccc(Cl)cc1F` [Example 83, (E)-3-(1-(5-chloro-2-((4-chloro-2-fluorobenzyl)oxy)benzyl)-1H-indol-4-yl)acrylic acid]: above 75%. Same read-out and setting: the same measure for `O=C(O)COc1cccc2c1ccn2Cc1cc(C(F)(F)F)ccc1OCc1ccc(Cl)cc1F` [Example 84, 2-((1-(2-((4-chloro-2-fluorobenzyl)oxy)-5-(trifluoromethyl)benzyl)-1H-indol-4-yl)oxy)acetic acid]: above 75%; for `O=C(O)COc1cccc2c1ccn2Cc1cc(Cl)ccc1OCC1CC1` [Example 85, 2-((1-(5-chloro-2-(cyclopropylmethoxy)benzyl)-1H-indol-4-yl)oxy)acetic acid]: above 75%; for `O=C(O)c1ccc2ccn(Cc3cc(Br)ccc3OCc3ccccc3)c2c1` [Example 87, 1-(2-(benzyloxy)-5-bromobenzyl)-1H-indole-6-carboxylic acid]: above 75%. Turning to `O=C(O)CCc1cccc2c1ccn2Cc1cc(Cl)ccc1OCc1ccc(Cl)cc1F` [Example 89, 3-(1-(5-chloro-2-((4-chloro-2-fluorobenzyl)oxy)benzyl)-1H-indol-4-yl)propanoic acid], the “Results of Test 2 (Functional assay), % inh” value at human EP1 receptor [1] (at 10 μM) is “$$ (45 < % inh < 75)”. In the case of `O=C(O)c1ccnc2c1ccn2Cc1cc(Cl)ccc1OCc1ccc(Cl)cc1F` [Example 90, 1-(5-chloro-2-((4-chloro-2-fluorobenzyl)oxy)benzyl) -1H-pyrrolo[2,3-b]pyridine-4-carboxylic acid], the inhibition at 10 µM at human EP1 receptor [1] was above 75%. Same read-out and setting: the same measure for `O=C(O)c1cccc2c1ncn2Cc1cc(Cl)ccc1OCc1ccc(Cl)cc1F` [Example 92, 1-(5-chloro-2-((4-chloro-2-fluorobenzyl)oxy)benzyl) -1H-benzo[d]imidazole-4-carboxylic acid]: 45 to 75%; for `O=C(O)c1cccc2c1CCN2Cc1cc(Cl)ccc1OCc1ccc(Cl)cc1F` [Example 93, 1-(5-chloro-2-((4-chloro-2-fluorobenzyl)oxy)benzyl)indoline-4-carboxylic acid]: above 75%. On the same count and under the same terms, the same measure for `O=C(O)c1cccc2c1CCCN2Cc1cc(Cl)ccc1OCc1ccc(Cl)cc1F` [Example 94, 1-(5-chloro-2-((4-chloro-2-fluorobenzyl)oxy)benzyl) -1,2,3,4-tetrahydroquinoline-5-carboxylic acid]: above 75%. In the case of `O=C(O)c1cccc2c1CCCN2Cc1cc(Cl)ccc1OCc1ccc(F)cc1F` [Example 95], on human EP1 receptor [1], the inhibition at 10 µM was above 75%. Still for that read-out and setting: the value for `O=C(O)c1ccc(F)c2c1ccn2Cc1cc(Cl)ccc1OCc1ccc(F)cc1F` [Example 100, sodium 1-(5-chloro-2-((2,4-difluorobenzyl)oxy)benzyl)-7-fluoro-1H-indole-4-carboxylate] was above 75%.
